Consider 1 compound from patent publication US20260207626A1, “SYNTHETIC TRITERPENOIDS AND COMPOSITIONS THEREOF IN WEIGHT MANAGEMENT, SKELETAL MUSCLE FUNCTION, AND APPETITE SUPPRESSION” (The Board of Regents of the University of Texas System, priority 2022, published 2026).

Test [1] in a line: Food intake in mice fed HFD with or without CDDO-EA, LFD or HFD pair-fed. Format: in vivo, C57BL/6J mice. The settings on record: HFD + CDDO-EA (0.04%) vs ad libitum HFD. From the text: C57BL/6J mice were fed a HFD with or without incorporation of CDDO-EA (diet containing 0.04% CDDO-EA) or LFD or HFD pair-fed for 6 weeks (n=5). Food intake data points in week 1 are not recorded when mice were in the Prometheion. Data are represented as mean±SEM (Two-way Repeated Measures ANOVA). *p<0.05; **p<0.01 vs. HFD pair-fed; ? p<0.01 vs. HFD+CDDO-EA; ##p<0.01 vs. LFD ad lib.
C57BL/6J mice (6-8 weeks old, male, strain #000664, The Jackson Laboratory) were divided into four (4) groups (i)-(iv)): (i) ad libitum Low fat caloric content (LFD-10% of total calories from fat caloric content, #TD.08806, Envigo), (ii) ad libitum HFD (60% of total calories from fat caloric content, #TD.06414, Envigo), (iii) HFD+CDDO-EA (diet containing 0.04% CDDO-EA), and (iv) HFD pair-fed to food intake of mice fed HFD+CDDO-EA. The study was for 6 weeks (42 days) (performed at Vanderbilt Metabolic Mouse Phenotyping Center (VMMPC)). Mice were singly housed in a Promethion Metabolic Analyzer and were monitored continuously for 7 days to assess feeding and EE.

Test [2] in a line: Chow consumption / energy intake of mice fed LFD or HFD with or without CDDO-EA. Type of test: in vivo, C57B16/J mice. The method, then: To assess the protective effects of CDDO-EA from obesity and insulin resistance, C57B16/J mice (6-8 weeks old, male, strain #000664, The Jackson Laboratory) were used. The animals were fed a Low Fat diet (LFD) (10% total calories from fat, […]) or a High Fat diet (HFD) (60% of total calories from fat) incorporated with or without CDDO-EA (chow containing 0.04% CDDO-EA) for six weeks.
Energy intake was also measured. Energy intake is determined as a measure of the amount of food consumed by a subject (such as a subject mouse). […] Thus CDDO-EA protects from development of HFD-induced obesity in vivo.
The mice were maintained on one of the 4 food regiment schedules as defined in Example 2. The amount of food consumed by an animal was monitored weekly.

The test system of a further test is GLUT4. Briefly: Colorimetric assay of cell surface GLUT4 in L6GLUT4myc myotubes (preliminary data). The settings on record: FIG. 30. Format: cell-based, rat. The method, then: Is CDDO-EA-mediated GLUT4 translocation dependent on AMPK activation? The catalytic subunit alpha-1 (α1) of AMPK will be KD by siRNA. Cells will be treated with CDDO-EA (500 nM, 1 hour), insulin ([…] for 15 min), or insulin and CDDO-EA to determine if there is a synergistic effect on GLUT4 translocation. Also, cells will be treated with the AMPK activator, 5-aminoimidazole-4-carboxamide ribonucleoside (AICAR, 1 mM, 40 minutes), as a positive control. We will use a colorimetric assay to quantitatively measure the levels of cell surface GLUT4 in 3T3-L1 adipocytes and L6GLUT4myc myotubes^37. […] GLUT4 translocation will be detected via immunofluorescence. Subcellular protein fractionation will be conducted to detect GLUT4 in the sarcolemma for myotubes and plasma membrane for adipocytes and GLUT2 in the plasma membrane of hepatocytes via Western blotting. GLUT2 will be measured in hepatocytes because GLUT2 is the most abundant glucose transporter in hepatocytes^38. To measure glucose uptake, a non-radioactive, plate-based bioluminescent assay (Glucose Uptake-Glo, Promega) will be performed. Using Glucose Uptake-Glo, insulin induces glucose uptake in L6GLUT4my myotubes. Phosphorylation of AMPK at Thr^172 and phosphorylation of ACC at Ser^79 indicates activation of the AMPK pathway. Thus, phosphorylation of AMPK Thr^172 and ACC Ser^79 will be shown through Western blotting. […]

Entries after “also recorded” stand apart in the source; their conditions may differ. Marks after values point to notes of the source that are not given here.

As for `CCNC(=O)[C@]12CCC(C)(C)C[C@H]1C1C(=O)C=C3[C@@]4(C)C=C(C#N)C(=O)C(C)(C)[C@@H]4CC[C@@]3(C)[C@]1(C)CC2` (stereo partly drawn) [CDDO-EA, (4aS,6aR,6bS,8aR,12aS,14bS)-11-cyano-N-ethyl-2,2,6a,6b,9,9,12a-heptamethyl-10,14-dioxo-1,3,4,5,6,6a,6b, 7,8,8a,9,10,12a, 14,14a, 14b-hexadecahydropicene-4a (2H)-carboxamide], the food intake entry in test [1] is reported as “prevented an increase in food intake; also recorded: decreases food intake”. Further, the “Grams of Chow per Week Consumed by Animals” value in test [2] (HFD + CDDO-EA (0.04%), week 1) is given as 18.0 ± 0.9 Grams of Chow per Week; in test [2] (HFD + CDDO-EA (0.04%), week 2), 18.4 ± 1.0 Grams of Chow per Week; in test [2] (HFD + CDDO-EA (0.04%), week 3), 16.8 ± 0.5 Grams of Chow per Week; in test [2] (HFD + CDDO-EA (0.04%), week 4), 15.8 ± 0.4* * Grams of Chow per Week; in test [2] (HFD + CDDO-EA (0.04%), week 5), 16.2 ± 0.5 Grams of Chow per Week; in test [2] (HFD + CDDO-EA (0.04%), week 6), 16.6 ± 0.4 Grams of Chow per Week. Further, the “Grams of Chow per Week Consumed by Animals” value in test [2] (LFD + CDDO-EA (0.04%), week 1) is on record as 19.2 ± 0.6 Grams of Chow per Week; in test [2] (LFD + CDDO-EA (0.04%), week 2), 21.5 ± 0.6 Grams of Chow per Week; in test [2] (LFD + CDDO-EA (0.04%), week 3) it was 21.1 ± 0.7 Grams of Chow per Week; in test [2] (LFD + CDDO-EA (0.04%), week 4), 20.0 ± 0.2 Grams of Chow per Week; in test [2] (LFD + CDDO-EA (0.04%), week 5) it was 21.3 ± 0.3 Grams of Chow per Week; in test [2] (LFD + CDDO-EA (0.04%), week 6), 19.8 ± 0.4 Grams of Chow per Week. Besides, the “energy intake (caloric food consumption)” value in test [2] (HFD chow mixed with CDDO-EA) is on record as “decreased energy intake; also recorded: inhibits energy intake”. Further, in test [2] (HFD+CDDO-EA group, all six weeks), the “average weekly chow consumption” value turned out to be 17 g. Also, in test [2] (week 3), the “more food consumed by HFD-fed animals than by HFD plus CDDO-EA-fed animals” value stood at 20%. Also, the “more food consumed by HFD-alone animals than by HFD + CDDO-EA animals” value in test [2] (week one) was “at least 10%”. Also, the “GLUT4 translocation to the cell surface (colorimetry assay)” value in the test on GLUT4 is “induce GLUT4 translocation to the cell surface”.
